Laboratory results reported in ChEMBL document CHEMBL1240349, “Influence of tigecycline on expression of virulence factors in biofilm-associated cells of methicillin-resistant Staphylococcus aureus” (2010).

What was measured:
Type in all cases: functional
[1] = test system: Staphylococcus aureus; assay: Decrease in capG gene expression in biofilm-associated cells of epidemic methicillin-resistant Staphylococcus aureus isolate 16 at 4 times MIC incubated for 1 hr by whole genome microarray relative to untreated control
[2] = test system: Staphylococcus aureus; assay: Decrease in clpB gene expression in biofilm-associated cells of epidemic methicillin-resistant Staphylococcus aureus isolate 16 at 4 times MIC incubated for 1 hr by whole genome microarray relative to untreated control
[3] = test system: Staphylococcus aureus; assay: Decrease in cap8H gene expression in biofilm-associated cells of epidemic methicillin-resistant Staphylococcus aureus isolate 16 at 4 times MIC incubated for 1 hr by whole genome microarray relative to untreated control
[4] = test system: Staphylococcus aureus; assay: Decrease in capB gene expression in biofilm-associated cells of epidemic methicillin-resistant Staphylococcus aureus isolate 16 at 4 times MIC incubated for 1 hr by whole genome microarray relative to untreated control
[5] = test system: Staphylococcus aureus; assay: Decrease in clpC gene expression in biofilm-associated cells of epidemic methicillin-resistant Staphylococcus aureus isolate 16 at 4 times MIC incubated for 1 hr by whole genome microarray relative to untreated control
[6] = test system: Staphylococcus aureus; assay: Decrease in capF gene expression in biofilm-associated cells of epidemic methicillin-resistant Staphylococcus aureus isolate 16 at 4 times MIC incubated for 1 hr by whole genome microarray relative to untreated control
[7] = test system: Staphylococcus aureus; assay: Decrease in tst gene expression in biofilm-associated cells of epidemic methicillin-resistant Staphylococcus aureus isolate 16 at 4 times MIC incubated for 1 hr by whole genome microarray relative to untreated control
[8] = test system: Staphylococcus aureus; assay: Decrease in sasF gene expression in biofilm-associated cells of epidemic methicillin-resistant Staphylococcus aureus isolate 16 at 4 times MIC incubated for 1 hr by RT-PCR relative to untreated control
[9] = test system: Staphylococcus aureus; assay: Decrease in sasF expression in biofilm-associated cells of epidemic methicillin-resistant Staphylococcus aureus isolate 15 at 4 times MIC incubated for 1 hr by RT-PCR relative to untreated control
[10] = test system: Staphylococcus aureus; assay: Increase in ssaA gene expression in biofilm-associated cells of epidemic methicillin-resistant Staphylococcus aureus isolate 16 at 4 times MIC incubated for 1 hr by RT-PCR relative to untreated control
[11] = test system: Staphylococcus aureus; assay: Decrease in capC expression in biofilm-associated cells of epidemic methicillin-resistant Staphylococcus aureus isolate 16-2 at 4 times MIC incubated for 1 hr by RT-PCR relative to untreated control
[12] = test system: Staphylococcus aureus; assay: Increase in tsf gene expression in biofilm-associated cells of epidemic methicillin-resistant Staphylococcus aureus isolate 16 at 4 times MIC incubated for 1 hr by whole genome microarray relative to untreated control
[13] = test system: Staphylococcus aureus; assay: Increase in tuf gene expression in biofilm-associated cells of epidemic methicillin-resistant Staphylococcus aureus isolate 16 at 4 times MIC incubated for 1 hr by whole genome microarray relative to untreated control
[14] = test system: Staphylococcus aureus; assay: Decrease in fnbB expression in biofilm-associated cells of epidemic methicillin-resistant Staphylococcus aureus isolate 16-2 at 4 times MIC incubated for 1 hr by RT-PCR relative to untreated control
[15] = test system: Staphylococcus aureus; assay: Decrease in tst gene expression in biofilm-associated cells of epidemic methicillin-resistant Staphylococcus aureus isolate 16 at 4 times MIC incubated for 1 hr by RT-PCR relative to untreated control
[16] = test system: Staphylococcus aureus; assay: Increase in ssaA gene expression in biofilm-associated cells of epidemic methicillin-resistant Staphylococcus aureus isolate 16 at 4 times MIC incubated for 1 hr by whole genome microarray relative to untreated control
[17] = test system: Staphylococcus aureus; assay: Decrease in sasF expression in biofilm-associated cells of epidemic methicillin-resistant Staphylococcus aureus isolate 16-2 at 4 times MIC incubated for 1 hr by RT-PCR relative to untreated control
[18] = test system: Staphylococcus aureus; assay: Increase in saeR gene expression in biofilm-associated cells of epidemic methicillin-resistant Staphylococcus aureus isolate 16 at 4 times MIC incubated for 1 hr by whole genome microarray relative to untreated control
[19] = test system: Staphylococcus aureus; assay: Decrease in clpC gene expression in biofilm-associated cells of epidemic methicillin-resistant Staphylococcus aureus isolate 16 at 4 times MIC incubated for 1 hr by RT-PCR relative to untreated control
[20] = test system: Staphylococcus aureus; assay: Decrease in capC expression in biofilm-associated cells of epidemic methicillin-resistant Staphylococcus aureus isolate 16-1 at 4 times MIC incubated for 1 hr by RT-PCR relative to untreated control
[21] = test system: Staphylococcus aureus; assay: Increase in rplC gene expression in biofilm-associated cells of epidemic methicillin-resistant Staphylococcus aureus isolate 16 at 4 times MIC incubated for 1 hr by whole genome microarray relative to untreated control
[22] = test system: Staphylococcus aureus; assay: Increase in rho gene expression in biofilm-associated cells of epidemic methicillin-resistant Staphylococcus aureus isolate 16 at 4 times MIC incubated for 1 hr by whole genome microarray relative to untreated control
[23] = test system: Staphylococcus aureus; assay: Decrease in clfB expression in biofilm-associated cells of epidemic methicillin-resistant Staphylococcus aureus isolate 16-2 at 4 times MIC incubated for 1 hr by RT-PCR relative to untreated control
[24] = test system: Staphylococcus aureus; assay: Increase in dnaG gene expression in biofilm-associated cells of epidemic methicillin-resistant Staphylococcus aureus isolate 16 at 4 times MIC incubated for 1 hr by whole genome microarray relative to untreated control
[25] = test system: Staphylococcus aureus; assay: Increase in cna expression in biofilm-associated cells of epidemic methicillin-resistant Staphylococcus aureus isolate 16-2 at 4 times MIC incubated for 1 hr by RT-PCR relative to untreated control
[26] = test system: Staphylococcus aureus; assay: Increase in tcaR gene expression in biofilm-associated cells of epidemic methicillin-resistant Staphylococcus aureus isolate 16 at 4 times MIC incubated for 1 hr by whole genome microarray relative to untreated control
[27] = test system: Staphylococcus aureus; assay: Increase in rplD gene expression in biofilm-associated cells of epidemic methicillin-resistant Staphylococcus aureus isolate 16 at 4 times MIC incubated for 1 hr by whole genome microarray relative to untreated control
[28] = test system: Staphylococcus aureus; assay: Increase in dltA gene expression in biofilm-associated cells of epidemic methicillin-resistant Staphylococcus aureus isolate 16 at 4 times MIC incubated for 1 hr by whole genome microarray relative to untreated control
[29] = test system: Staphylococcus aureus; assay: Decrease in dinR gene expression in biofilm-associated cells of epidemic methicillin-resistant Staphylococcus aureus isolate 16 at 4 times MIC incubated for 1 hr by whole genome microarray relative to untreated control
[30] = test system: Staphylococcus aureus; assay: Increase in clfB expression in biofilm-associated cells of epidemic methicillin-resistant Staphylococcus aureus isolate 16-1 at 4 times MIC incubated for 1 hr by RT-PCR relative to untreated control
[31] = test system: Staphylococcus aureus; assay: Increase in mnhF gene expression in biofilm-associated cells of epidemic methicillin-resistant Staphylococcus aureus isolate 16 at 4 times MIC incubated for 1 hr by whole genome microarray relative to untreated control
[32] = test system: Staphylococcus aureus; assay: Decrease in capG expression in biofilm-associated cells of epidemic methicillin-resistant Staphylococcus aureus isolate 15 at 4 times MIC incubated for 1 hr by RT-PCR relative to untreated control
[33] = test system: Staphylococcus aureus; assay: Increase in cna expression in biofilm-associated cells of epidemic methicillin-resistant Staphylococcus aureus isolate 16-1 at 4 times MIC incubated for 1 hr by RT-PCR relative to untreated control
[34] = test system: Staphylococcus aureus; assay: Increase in cna expression in biofilm-associated cells of epidemic methicillin-resistant Staphylococcus aureus isolate 15 at 4 times MIC incubated for 1 hr by RT-PCR relative to untreated control

In the case of `CN(C)c1cc(NC(=O)CNC(C)(C)C)c(O)c2c1C[C@H]1C[C@H]3[C@H](N(C)C)C(O)=C(C(N)=O)C(=O)[C@@]3(O)C(O)=C1C2=O` [TIGECYCLINE], the “fold change (FC)” value [1] is reported as 2.3, the “fold change (FC)” value [2] is reported as 2.49 and the “fold change (FC)” value [3] is reported as 2.18. For the same molecule, the “fold change (FC)” value [4] was 2.08, the “fold change (FC)” value [5] was 2.44 and the “fold change (FC)” value [6] was 2.66. For the same molecule, the “fold change (FC)” value [7] was 2.39, the “fold change (FC)” value [8] was 1.32 and the “fold change (FC)” value [9] was 1.86. The “fold change (FC)” value [10] was 2.04, the “fold change (FC)” value [11] was 1.09 and the “fold change (FC)” value [12] was 3.23. For the same molecule, the “fold change (FC)” value [13] was 7.41, the “fold change (FC)” value [14] was 1.53 and the “fold change (FC)” value [15] was 1.51. The “fold change (FC)” value [16] was 2.84, the “fold change (FC)” value [17] was 3.53 and the “fold change (FC)” value [18] was 2.02. For the same molecule, the “fold change (FC)” value [19] was 1.14, the “fold change (FC)” value [20] was 1.75 and the “fold change (FC)” value [21] was 12.06. For the same molecule, the “fold change (FC)” value [22] was 2.15, the “fold change (FC)” value [23] was 1.18 and the “fold change (FC)” value [24] was 2.19. The “fold change (FC)” value [25] was 1.2, the “fold change (FC)” value [26] was 2.79 and the “fold change (FC)” value [27] was 13.06. For the same molecule, the “fold change (FC)” value [28] was 2.63, the “fold change (FC)” value [29] was 3.31 and the “fold change (FC)” value [30] was 7.5. For the same molecule, the “fold change (FC)” value [31] was 3.27, the “fold change (FC)” value [32] was 1.58 and the “fold change (FC)” value [33] was 3.42. The “fold change (FC)” value [34] was 1.55.
